“And” between values parts separate entries of the source, which are not always exact repeats. Equal values may be shown once.
Legend:
[1] = humans; cited from earlier work
[2] = target: T1, wild-type KV11.1 (Homo sapiens, UniProt Q12809)
[3] = target: T2, WT Kv11.1 (Homo sapiens, UniProt Q12809); settings: 24 hour and washout, individual wells
Excerpt: plot of hits tested for 24-h our WT toxicity. Each point repres ents the med ia n robust Z score
after 24-hour treatm ent and washout in cells ex pressing WT.
robust Z scores be low bas eli ne function).
second ary screens w ere perform ed i n triplicate us ing 1 0 µ M drug treatme nt to assess: 1)
acute channel block, measur ed after a 15-minute inc ubati on with the drug present duri ng
recordi ngs; and 2) t oxicit y in W T channels, assesse d af t er a 24-hour drug ex posure fol low ed
(C) Tl+-measurements after 24-hour treatment and washout in HEK cells

[4] = target: Kv11.1 missense variants, residues 536–628 (Homo sapiens, UniProt Q12809, Y475D); experiment: Multiplexed assay of variant effect (saturation mutagenesis, FACS surface trafficking); settings: missense variant Y475D
Method: (§1) Cells were grown to 40%–60% confluence and transiently transfected first with Bxb1 integrase (pCAG–NLS–HA–Bxb1) using FuGENE 6 (Promega), followed by KCNH2 variant libraries 24 hours later. On day 6, cells were induced with 1 μg/mL doxycycline. Integrated cell lines expressed a single variant alongside mCherry, while nonintegrated cells were tagBFP-positive and mCherry-negative.
(§2) Saturation mutagenesis of Kv11.1 was performed using a modified promoterless dsRed-Express derivative plasmid. WT KCNH2 was inserted adjacent to an AttB site, and NdeI/BglII sites were created via synonymous mutations. […] These were purified, ligated, and electroporated into MegaX DH10B Electrocomp Cells.
(§3) The mutant pool was subcloned into the AttB-KCNH2-HA:IRES:mCherry plasmid, with an 18-mer poly-N barcode inserted adjacent to the AttB site. Each cloning step was validated via Sanger sequencing. To link barcodes with mutants, the library was digested, ligated, and PCR amplified. Final products were purified and sequenced on an Illumina NovaSeq. Reads were analyzed with a custom Python script to identify barcodes linked to single mutations.
(§4) HEK293T cells were cultured in αMEM (Corning) with 10% FBS and 1% GlutaMax at 37°C with 5% CO2. The KCNH2 variant library was integrated into a HEK293T “landing pad” cell line containing an AttP site between a tetracycline-inducible promoter and a blue fluorescent protein gene.
(§5) Cells were transfected using FuGENE 6, first with a plasmid expressing Bxb1 integrase (pCAG–NLS–HA–Bxb1) and then, the following day, with the KCNH2 variant library. On day 6, cells were incubated with 1 μg/mL doxycycline to induce expression from the landing pad’s promoter. Resulting stable cell lines expressed one variant and mCherry, while nonintegrated cells expressed tagBFP and were mCherry-negative.
(§6) Stable HEK293T cell lines were cultured in T75 flasks until 80%–90% confluent. […] After treatments, high-throughput quantitation was performed at the Vanderbilt University Medical Center Flow Cytometry Shared Resource Core (FCSR).
(§7) The treated HEK293T library was sorted via FACS to isolate cells with high mCherry expression and successful AttB plasmid integration. […] Sorted cells were repopulated and prepared for freezing, pelleted at 1 million cells per tube.
(§8) DNA was isolated from cell pools (100 μL QuickExtract per 1 million cells) and the barcode was PCR amplified for Illumina sequencing using Q5 polymerase (25–35 cycles). Sequencing reads were demultiplexed and analyzed using custom Python scripts (https://github.com/kroncke-lab/KCNH2_DMS) to identify barcodes.
(§9) The scores were then averaged across the 4 replicate experiments (separate transfections of the mutant library pool).

[5] = test system: Kv11.1 missense variants, residues 536–628; experiment: as above
Method: as §1, §2, §3, §4, §5, §6, §7, §8, §9

[6] = target: Kv11.1 missense variants, residues 536–628 (Homo sapiens, UniProt Q12809, Y475A); experiment: as above; settings: missense variant Y475A
Method: as §1, §2, §3, §4, §5, §6, §7, §8, §9

[7] = target: T1, wild-type KV11.1; experiment: cell-based
[8] = target: T2, WT Kv11.1; experiment: Whole-cell patch-clamp electrophysiology, drug in bath solution, WT; format: cell-based; parameters: expressed in transfected cells; Activation tail currents / Steady-state currents / Time constants of activation (τ): unit not given here; settings: for Figure 5B value per cell vs Time / Figure 4B value per cell vs Voltage (mV) / Figure 4D value per cell vs Voltage (mV): individual replicates; for peak tail currents (I-V relationship) / Steady-state currents / Activation tail currents: WT, individual cells; for peak tail currents (I-V relationship): evacetrapib 15 μmol/L in bath; for Steady-state currents / Activation tail currents: evacetrapib 15 μmol/L; for Activation tail currents: tail at –40 mV
Excerpt: Peak stea dy-sta te current was
Tail current was fit with a […]

T2 sequence (Q12809 whole entry, the tested form may be a part): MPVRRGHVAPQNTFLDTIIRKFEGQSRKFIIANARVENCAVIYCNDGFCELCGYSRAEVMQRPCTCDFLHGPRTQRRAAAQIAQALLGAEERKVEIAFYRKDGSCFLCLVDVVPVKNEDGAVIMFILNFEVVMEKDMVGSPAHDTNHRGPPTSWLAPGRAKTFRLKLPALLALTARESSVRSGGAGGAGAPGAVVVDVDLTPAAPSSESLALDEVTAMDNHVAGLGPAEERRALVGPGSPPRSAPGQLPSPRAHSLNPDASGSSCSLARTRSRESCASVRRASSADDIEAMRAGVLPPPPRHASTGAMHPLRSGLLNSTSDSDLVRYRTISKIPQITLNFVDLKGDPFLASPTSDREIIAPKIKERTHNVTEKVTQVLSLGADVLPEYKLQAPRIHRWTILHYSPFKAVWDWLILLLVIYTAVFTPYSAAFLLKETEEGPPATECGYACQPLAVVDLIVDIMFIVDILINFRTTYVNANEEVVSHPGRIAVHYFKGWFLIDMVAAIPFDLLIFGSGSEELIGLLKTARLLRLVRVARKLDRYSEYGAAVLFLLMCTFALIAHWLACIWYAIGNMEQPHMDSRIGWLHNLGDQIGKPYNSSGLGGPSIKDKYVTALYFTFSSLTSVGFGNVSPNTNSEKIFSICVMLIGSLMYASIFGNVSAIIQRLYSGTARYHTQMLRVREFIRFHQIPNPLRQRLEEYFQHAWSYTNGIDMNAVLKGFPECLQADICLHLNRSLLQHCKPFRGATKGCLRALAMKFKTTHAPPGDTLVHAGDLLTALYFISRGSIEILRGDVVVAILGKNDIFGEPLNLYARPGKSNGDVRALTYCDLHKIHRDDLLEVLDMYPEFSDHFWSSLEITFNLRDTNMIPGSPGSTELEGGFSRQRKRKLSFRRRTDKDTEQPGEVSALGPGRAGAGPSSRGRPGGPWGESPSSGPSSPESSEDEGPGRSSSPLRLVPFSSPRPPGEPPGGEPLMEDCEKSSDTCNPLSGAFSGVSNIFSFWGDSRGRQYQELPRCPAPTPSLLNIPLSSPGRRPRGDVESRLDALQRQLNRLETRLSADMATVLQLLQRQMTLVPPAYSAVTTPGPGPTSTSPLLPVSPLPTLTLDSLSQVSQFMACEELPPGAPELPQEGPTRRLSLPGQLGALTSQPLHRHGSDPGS
T1 sequence (Q12809 whole entry): as the sequence (Q12809 whole entry, the tested form may be a part) above
Kv11.1 missense variants, residues 536–628 (Homo sapiens, UniProt Q12809, Y475D), sequence (Q12809 whole entry Y475D, the tested form may be a part): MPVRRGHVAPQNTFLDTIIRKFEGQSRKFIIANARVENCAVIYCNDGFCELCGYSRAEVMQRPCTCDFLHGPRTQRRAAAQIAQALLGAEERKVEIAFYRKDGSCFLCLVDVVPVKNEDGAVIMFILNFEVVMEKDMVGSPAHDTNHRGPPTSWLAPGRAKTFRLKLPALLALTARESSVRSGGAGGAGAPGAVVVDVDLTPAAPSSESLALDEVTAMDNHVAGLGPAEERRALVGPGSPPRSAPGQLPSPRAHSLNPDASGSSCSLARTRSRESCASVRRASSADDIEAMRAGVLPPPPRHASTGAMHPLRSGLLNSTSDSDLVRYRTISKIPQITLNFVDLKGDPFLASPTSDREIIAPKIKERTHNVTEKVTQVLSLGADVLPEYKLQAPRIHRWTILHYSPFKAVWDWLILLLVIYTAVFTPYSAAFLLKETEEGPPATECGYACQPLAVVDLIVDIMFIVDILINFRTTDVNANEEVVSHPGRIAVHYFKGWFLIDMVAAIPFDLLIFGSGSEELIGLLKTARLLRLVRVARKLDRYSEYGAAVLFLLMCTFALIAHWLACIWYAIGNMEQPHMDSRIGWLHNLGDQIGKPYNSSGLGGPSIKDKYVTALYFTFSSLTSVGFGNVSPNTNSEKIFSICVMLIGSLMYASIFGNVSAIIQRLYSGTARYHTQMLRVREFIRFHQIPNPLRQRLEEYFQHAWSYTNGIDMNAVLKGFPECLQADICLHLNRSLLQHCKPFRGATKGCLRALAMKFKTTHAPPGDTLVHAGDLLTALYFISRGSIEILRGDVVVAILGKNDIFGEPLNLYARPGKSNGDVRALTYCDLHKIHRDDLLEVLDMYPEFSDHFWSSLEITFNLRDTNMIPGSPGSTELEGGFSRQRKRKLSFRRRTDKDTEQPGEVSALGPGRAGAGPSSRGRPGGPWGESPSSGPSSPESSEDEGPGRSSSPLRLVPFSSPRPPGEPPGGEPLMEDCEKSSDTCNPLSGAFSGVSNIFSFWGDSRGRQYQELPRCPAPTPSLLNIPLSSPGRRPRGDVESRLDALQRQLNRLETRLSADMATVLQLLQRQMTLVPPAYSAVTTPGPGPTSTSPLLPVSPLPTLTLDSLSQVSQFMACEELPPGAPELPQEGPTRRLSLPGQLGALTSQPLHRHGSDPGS
Kv11.1 missense variants, residues 536–628 (Homo sapiens, UniProt Q12809, Y475A), sequence (Q12809 whole entry Y475A, the tested form may be a part): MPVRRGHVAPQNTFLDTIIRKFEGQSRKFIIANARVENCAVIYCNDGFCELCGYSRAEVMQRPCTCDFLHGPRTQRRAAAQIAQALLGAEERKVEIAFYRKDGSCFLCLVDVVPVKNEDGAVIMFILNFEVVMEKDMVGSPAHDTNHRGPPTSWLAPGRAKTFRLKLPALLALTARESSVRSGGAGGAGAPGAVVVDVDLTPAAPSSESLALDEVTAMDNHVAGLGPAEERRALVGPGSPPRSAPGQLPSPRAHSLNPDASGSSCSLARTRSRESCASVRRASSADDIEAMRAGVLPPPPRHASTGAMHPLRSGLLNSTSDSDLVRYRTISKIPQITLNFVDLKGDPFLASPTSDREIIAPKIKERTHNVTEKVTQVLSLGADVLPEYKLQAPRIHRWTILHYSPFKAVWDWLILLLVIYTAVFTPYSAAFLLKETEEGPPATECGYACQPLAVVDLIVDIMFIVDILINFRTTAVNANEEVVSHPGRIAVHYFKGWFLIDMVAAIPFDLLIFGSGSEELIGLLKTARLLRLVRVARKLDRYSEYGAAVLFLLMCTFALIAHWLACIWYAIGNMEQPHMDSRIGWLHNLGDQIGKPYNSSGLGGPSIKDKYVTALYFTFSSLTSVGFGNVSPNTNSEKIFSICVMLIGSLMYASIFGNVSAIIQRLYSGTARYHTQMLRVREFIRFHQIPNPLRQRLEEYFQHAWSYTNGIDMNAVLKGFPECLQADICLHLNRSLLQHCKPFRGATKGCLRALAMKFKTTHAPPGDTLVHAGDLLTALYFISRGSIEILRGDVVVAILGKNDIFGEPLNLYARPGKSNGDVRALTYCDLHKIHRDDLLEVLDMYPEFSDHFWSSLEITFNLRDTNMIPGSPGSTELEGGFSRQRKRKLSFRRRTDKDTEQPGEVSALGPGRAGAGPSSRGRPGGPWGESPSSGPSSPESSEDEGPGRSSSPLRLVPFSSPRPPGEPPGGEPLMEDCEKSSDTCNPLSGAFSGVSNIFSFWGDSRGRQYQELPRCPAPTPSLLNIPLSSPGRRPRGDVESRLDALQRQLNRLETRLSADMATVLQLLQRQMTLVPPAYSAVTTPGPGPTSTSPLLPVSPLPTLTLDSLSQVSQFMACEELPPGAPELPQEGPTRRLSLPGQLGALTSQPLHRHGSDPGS

SMILES: Cc1cc(C)c2c(c1)[C@@H](N(Cc1cc(C(F)(F)F)cc(C(F)(F)F)c1)c1nnn(C)n1)CCCN2C[C@H]1CC[C@H](C(=O)O)CC1 [Evacetrapib, evacetrapib]
- peak plasma concentrations [1]: 1.9 to 8.2 µM
- inhibition of WT channels [2]: did not inhibit WT channels
- Changes in WT function (thallium flux) [3]: 0.1125 and 0.1113 and 0.1215
- score (Figure 6B) [4]: 152.736
- share of the 546 variants rescued by either drug that evacetrapib improved ([5]; 10 μmol/L, 24 hours): 45%
- share of known pathogenic variants in the pore region with improved trafficking ([5]; 16 out of 94): 17%
- share of all trafficking-deficient variants in this channel segment with improved trafficking ([5]; 248 out of 971, 10 μmol/L, 24 hours): 25%
- number of trafficking-deficient variants with improved trafficking ([5]; of 971 variants with ≥90% loss of surface expression, 10 μmol/L, 24 hours): 248
- number of known pathogenic variants in the pore region with improved trafficking ([5]; out of 94, 10 μmol/L, 24 hours): 16
- score (Figure 6B) [6]: 25.1035
- EC50 [7]: 8.2 µM
- Figure 5B value per cell vs Time ([8]; Time 480): -0.4681 and -0.2647 and -0.2507 and -0.1972 and -0.3239 and -0.2271
- Figure 5B value per cell vs Time ([8]; Time 540): -0.5284 and -0.3222 and -0.285 and -0.2169 and -0.3896 and -0.2816
- Figure 5B value per cell vs Time ([8]; Time 600): -0.588 and -0.3629 and -0.3374 and -0.2423 and -0.4551 and -0.3284
- Figure 5B value per cell vs Time ([8]; Time 660): -0.6518 and -0.4077 and -0.3785 and -0.3017 and -0.5218 and -0.3806
- Figure 5B value per cell vs Time ([8]; Time 720): -0.7017 and -0.4517 and -0.4377 and -0.3271 and -0.5811 and -0.4215
- Figure 5B value per cell vs Time ([8]; Time 780): -0.7446 and -0.5087 and -0.4704 and -0.3371 and -0.6312 and -0.4754
- Figure 5B value per cell vs Time ([8]; Time 840): -0.7775 and -0.545 and -0.522 and -0.4074 and -0.6797 and -0.5211
- Figure 5B value per cell vs Time ([8]; Time 900): -0.7865 and -0.5874 and -0.5479 and -0.435 and -0.735 and -0.566
- Figure 5B value per cell vs Time ([8]; Time 960): -0.833 and -0.6254 and -0.582 and -0.4724 and -0.7754 and -0.6113
- Figure 5B value per cell vs Time ([8]; Time 1020): -0.8444 and -0.6633 and -0.6057 and -0.489 and -0.8272 and -0.6494
- Figure 5B value per cell vs Time ([8]; Time 1080): -0.8739 and -0.6879 and -0.652 and -0.5518 and -0.8519 and -0.6869
- Figure 5B value per cell vs Time ([8]; Time 1140): -0.894 and -0.7265 and -0.6824 and -0.5792 and -0.8903 and -0.723
- Figure 5B value per cell vs Time ([8]; Time 1200): -0.8957 and -0.756 and -0.7067 and -0.6036 and -0.9115 and -0.75
- Figure 5B value per cell vs Time ([8]; Time 1260): -0.9162 and -0.7845 and -0.7409 and -0.6519 and -0.9274 and -0.7716
- Figure 5B value per cell vs Time ([8]; Time 1320): -0.9293 and -0.808 and -0.7659 and -0.6564 and -0.944 and -0.7966
- Figure 5B value per cell vs Time ([8]; Time 1380): -0.9321 and -0.8297 and -0.7811 and -0.6653 and -0.9508 and -0.8202
- Figure 5B value per cell vs Time ([8]; Time 1440): -0.9456 and -0.8515 and -0.7941 and -0.6916
- Figure 4B value per cell vs Voltage (mV) ([8]; Voltage 0 mV): 11.8726 and 11.4943 and 10.3496 and 10.9094 and 10.8921
- Figure 4B value per cell vs Voltage (mV) ([8]; Voltage 10 mV): 8.653 and 8.735 and 8.112 and 8.594 and 8.227
- Figure 4B value per cell vs Voltage (mV) ([8]; Voltage 20 mV): 6.045 and 6.561 and 6.2 and 6.536 and 6.09
- Figure 4B value per cell vs Voltage (mV) ([8]; Voltage 30 mV): 4.263 and 4.813 and 4.589 (2×) and 4.855
- Figure 4B value per cell vs Voltage (mV) ([8]; Voltage 40 mV): 2.999 and 3.548 and 3.503 and 3.618 and 3.396
- Figure 4B value per cell vs Voltage (mV) ([8]; Voltage 50 mV): 2.259 and 2.688 and 2.663 and 2.777 and 2.566
- Figure 4B value per cell vs Voltage (mV) ([8]; Voltage 60 mV): 1.878 and 2.068 and 2.124 and 2.21 and 2.021
- Figure 4B value per cell vs Voltage (mV) ([8]; Voltage 70 mV): 1.522 and 1.6561 and 1.697 and 1.79 and 1.58
- peak tail currents (I-V relationship) ([8]; Voltage (mV) 0): 108.731 and 68.2281 and 79.8578 and 105.108 and 89.4676 and 63.9693 and 63.3317 and 23.2206 and 38.9777 and 18.6844
- Steady-state currents ([8]; Voltage (mV) 0): 40.4395 and 14.6593 and 23.6253 and 10.7424 and 12.2745 and 25.059 and 13.3557 and 25.8785 and 25.7792 and 48.7186 and 28.6917
- Activation tail currents ([8]; Voltage (mV) 0): 45.6244 and 25.343 and 54.0146 and 31.4245 and 29.2272 and 68.7383 and 34.1486 and 20.8925 and 71.2996 and 102.774 and 57.7045
- peak tail currents (I-V relationship) ([8]; Voltage (mV) 10): 93.1489 and 60.1622 and 69.939 and 86.7676 and 75.6735 and 55.3784 and 40.7784 and 17.5354 and 25.5833 and 12.8315
- Steady-state currents ([8]; Voltage (mV) 10): 32.8981 and 20.4014 and 36.7833 and 17.1944 and 20.5841 and 27.8135 and 21.9511 and 36.7956 and 27.3543 and 47.5782 and 26.4245
- Activation tail currents ([8]; Voltage (mV) 10): 61.4581 and 36.6943 and 61.1695 and 48.7606 and 43.5182 and 102.425 and 47.3892 and 33.802 and 80.7764 and 116.916 and 59.6106
- peak tail currents (I-V relationship) ([8]; Voltage (mV) 20): 76.997 and 51.8869 and 61.5888 and 71.295 and 62.4196 and 45.36 and 26.1159 and 13.7511 and 17.275 and 9.104
- Steady-state currents ([8]; Voltage (mV) 20): 22.6993 and 18.9152 and 37.889 and 17.2911 and 21.9338 and 23.7154 and 29.6022 and 43.1925 and 20.5026 and 37.4057 and 19.7431
- Activation tail currents ([8]; Voltage (mV) 20): 71.9787 and 45.4439 and 63.7225 and 61.2461 and 53.0993 and 122.955 and 54.7189 and 46.6431 and 82.6403 and 123.849 and 59.1491
- peak tail currents (I-V relationship) ([8]; Voltage (mV) 30): 61.9853 and 42.564 and 49.6862 and 55.8776 and 49.9256 and 37.5621 and 17.4891 and 11.2899 and 12.2347 and 6.843
- Steady-state currents ([8]; Voltage (mV) 30): 13.8134 and 15.2335 and 30.8124 and 15.3878 and 19.0656 and 16.8628 and 32.7435 and 42.003 and 14.0184 and 26.2752 and 15.6099
- Activation tail currents ([8]; Voltage (mV) 30): 78.4549 and 49.9729 and 64.1927 and 68.2058 and 57.9705 and 130.879 and 57.8601 and 56.5419 and 81.1964 and 126.769 and 58.6074
- peak tail currents (I-V relationship) ([8]; Voltage (mV) 40): 49.0637 and 36.1043 and 40.7824 and 44.6525 and 42.1084 and 30.3986 and 12.7193 and 9.659 and 9.23 and 5.4472
- Steady-state currents ([8]; Voltage (mV) 40): 8.152
- Activation tail currents ([8]; Voltage (mV) 40): 80.9925 and 51.9387 and 63.2186 and 69.4712 and 59.5512 and 133.68 and 59.6841 and 61.1492 and 78.5713 and 128.32 and 57.9252
- peak tail currents (I-V relationship) ([8]; Voltage (mV) -10): 121.614 and 76.2939 and 89.915 and 120.029 and 102.147 and 69.7054 and 87.5927 and 30.4321 and 56.9661 and 25.473
- Steady-state currents ([8]; Voltage (mV) -10): 39.4793 and 7.634 and 11.4994 and 5.42 and 5.3991 and 14.8809 and 6.707 and 15.12 and 14.6222 and 35.1249 and 21.6894
- peak tail currents (I-V relationship) ([8]; Voltage (mV) -20): 131.419 and 84.709 and 100.756 and 135.254 and 114.81 and 74.7542 and 102.167 and 37.4476 and 77.7339 and 32.9646
- Steady-state currents ([8]; Voltage (mV) -20): 32.9524 and 3.6817 and 4.46 and 2.8711 and 2.362 and 6.4831 and 3.43 and 7.428 and 4.804 and 18.1098 and 9.611
- Activation tail currents ([8]; Voltage (mV) -20): 15.0143
- peak tail currents (I-V relationship) ([8]; Voltage (mV) -30): 132.826 and 89.7021 and 107.215 and 142.287 and 124.198 and 74.8335 and 106.966 and 44.1713 and 97.481 and 39.1658
- Steady-state currents ([8]; Voltage (mV) -30): 26.2905 and 2.297 and 2.248 and 2.097 and 1.35 and 2.687 and 2.39 and 4.071 and 1.181 and 8.895 and 2.9695
- Activation tail currents ([8]; Voltage (mV) -30): 7.534 and 3.411 and 6.987 and 3.037 and 3.42 and 5.381 and 4.729 and 3.695 and 5.67 and 20.6644 and 10.955
- peak tail currents (I-V relationship) ([8]; Voltage (mV) -40): 123.894 and 91.9717 and 106.938 and 138.26 and 129.161 and 68.3308 and 100.665 and 47.0658 and 110.15 and 41.9127
- Steady-state currents ([8]; Voltage (mV) -40): 22.4974 and 1.925 and 1.695 and 1.5162 and 1.5185 and 1.713 and 2.12 and 2.908 and -0.105 and 5.52 and 1.124
- Activation tail currents ([8]; Voltage (mV) -40): 4.388 and 2.505 and 3.124 and 2.236 and 2.355 and 2.6537 and 2.736 and 2.76 and 1.5226 and 9.99 and 3.792
- peak tail currents (I-V relationship) ([8]; Voltage (mV) -50): 102.384 and 84.1154 and 96.6044 and 116.609 and 127.372 and 55.6691 and 86.621 and 46.497 and 109.939 and 41.3172
- Steady-state currents ([8]; Voltage (mV) -50): 1.688 and 1.554 and 1.143 and 1.161 and 1.645 and 1.646 and 2.0814 and 1.85 and -0.735 and 4.1055 and 0.8628
- Activation tail currents ([8]; Voltage (mV) -50): 3.7007 and 2.582 and 2.251 and 2.025 and 2.032 and 1.953 and 2.466 and 2.6 and 0.4988 and 7.116 and 1.746
- Activation tail currents ([8]; Voltage (mV) -60): 4.229 and 3.296 and 2.251 and 1.856 and 2 and 1.917 and 2.331 and 2.577 and 0.3413 and 6.751 and 1.786
- Figure 4B value per cell vs Voltage (mV) ([8]; Voltage -10 mV): 14.8044 and 13.7126 and 12.9375 and 13.3319 and 13.3961
- Figure 4B value per cell vs Voltage (mV) ([8]; Voltage -20 mV): 17.0235 and 15.2047 and 14.605 and 15.0846 and 15.5938
- Figure 4D value per cell vs Voltage (mV) ([8]; Voltage -30 mV): 15.7269 and 18.6316 and 19.1074 and 18.8344 and 16.9058 and 17.0433 and 17.3545
- Figure 4D value per cell vs Voltage (mV) ([8]; Voltage -40 mV): 16.5636 and 18.432 and 19.3043 and 18.0397 and 17.6 and 17.7987 and 17.7833 and 17.6688
- Figure 4D value per cell vs Voltage (mV) ([8]; Voltage -50 mV): 17.1571 and 17.6888 and 17.131 and 15.567 and 16.0065 and 16.8291 and 17.2705 and 17.4541
